Results as given in publication PMC5071873, “The Effects of Puerarin on Rat Ventricular Myocytes and the Potential Mechanism” (Scientific Reports, 2016).
Where two headings read alike, the source gives them in different places.

Assays:
[1] = system: rat ventricular myocytes; experiment: Action potential recording on isolated rat ventricular myocytes; assay type: cell-based; settings: for APA: control 112.5 ± 6.3; for Vmax: control 226.9 ± 12.4; for RMP: control −80.1 ± 2.7
Experimental: (§1) The Tyrode’s solution contained (mM): 126 NaCl, 5.4 KCl, 1.8 CaCl2, 1 MgCl2, 0.33 NaH2PO4, 10 HEPES and 10 glucose, pH 7.4 (adjusted with NaOH). The Ca^2+-free Tyrode’s solution was prepared by removing CaCl2 from the Tyrode’s solution. The Kreb’s solution used for cell storage contained (mM): 70 glutamic acid, 30 KCl, 15 taurine, 0.5 MgCl2, 10 KH2PO4, 0.5 EGTA, 10 HEPES, 10 glucose, and 1% albumin, pH 7.4 (adjusted with KOH). The enzyme solution used for the rat cardiomyocyte isolation contained 0.08 g/L collagenase (type II) and 1.0 g/L BSA in Kreb’s solution. For action potential recording on cardiomyocyte, the pipette solution contained (mM): 100 potassium aspartate, 30 KCl, 1 MgCl2, 5 Mg-ATP, 5 EGTA, 5 HEPES, pH 7.3 (adjusted with KOH); the Tyrode’s solution was used as the standard bath solution. For whole-cell recording of IKs on myocytes, the pipette solution contained (mM): 125 potassium aspartate, 20 KCl, 1 MgCl2, 5 Mg-ATP, 10 EGTA, 5 HEPES, pH 7.3 (adjusted with KOH); the bath solution contained (mM): 132 NaCl, 4 KCl, 1.8 CaCl2, 1.2 MgCl2, 10 HEPES, 5 glucose, pH 7.4 (adjusted with NaOH). 3 μM nifedipine and 5 μM E-4031 were used to block the calcium current and IKr, respectively. For whole-cell recording on HEK-293 cells, the pipette solution contained (mM): 140 KCl, 2 MgCl2, 10 HEPES, 0.1 EGTA, 4 K2-ATP, pH 7.3 (adjusted with KOH); the bath solution contained (mM): 120 NaCl, 5 KCl, 1.5 CaCl2, 1 MgCl2, 10 HEPES, 10 glucose, pH 7.4 (adjusted with NaOH). For single-channel recording, the pipette solution (extracellular) contained (mM): 145 KCl, 10 HEPES, 10 glucose, pH 7.4 (adjusted with KOH); the bath solution (intracellular) contained (mM): 145 KCl, 1.2 MgCl2, 10 HEPES, 0.1 EGTA, pH 7.38 (adjusted with KOH).
Single ventricular myocytes were isolated from adult rat hearts via enzymatic dissociation as previously described. Briefly, the rats were anesthetised with 25% chloral hydrate (0.1 g/100 g). Their hearts were excised rapidly and retrogradely perfused on a Langendorff apparatus with a Ca^2+-free Tyrode’s solution for 5 min before the perfusate was switched to an enzymatic solution for 10–20 min. The perfusate was finally changed to Kreb’s solution for 5 min. The perfusates were bubbled with 95% O2 + 5% CO2 and maintained at 37 °C. The ventricles w ere cut into small chunks and gently agitated in Kreb’s solution. The cells were filtered through nylon mesh (pore size 200 μm) and stored in Kreb’s solution at 4 °C.
Action potentials were elicited at 1 Hz by 2 ms current pulses applied using the patch pipette.
(§2) Cell suspensions were transferred into a chamber on the stage of a Nikon Eclipse Ti inverted microscope (Tokyo, Japan). The whole-cell recordings were performed using isolated single ventricular myocytes. Patch electrodes were pulled from a horizontal microelectrode puller (P-1000, Sutter Instrument Co, USA) and fire polished to final tip resistance of 4.0–8.0 MΩ when filled with internal solutions. Signals were amplified with an Axopatch 200B amplifier (Axon Instruments, USA) and filtered at 1 kHz. The pCLAMP 9.0 software was used to generate current and voltage clamp protocols, acquire data, and analyse the current traces. The whole-cell series resistance was compensated to more than 80%. All of the experiments were performed at room temperature (22 ± 1 °C). The whole-cell IK1 was elicited by a ramp voltage protocol from −140 to + 40 mV in 1 s, or at a 0 mV holding potential to test potentials from −140 to + 40 mV in 10 mV increments. The IK1 was calculated as the difference between the peak inward current and the holding current level. The whole-cell Kv7.1/IKs were elicited from a −30 mV holding potential to test potentials from −80 to + 40 mV in 10 mV increments.

[2] = biological target: T1, IKs channels (KCNQ and KCNE) (Homo sapiens, UniProt P51787); experiment: Whole-cell patch clamp of IKs currents (Kv7.1 + KCNE1, voltage steps) in transfected HEK293 cells; assay type: cell-based; settings: for IC50: HEK293, non-linear Hill fit, n = 6 each point; for IKs-tail current density / IKs current density: at 40 mV; for IKs-tail current density: control 23.5 ± 1.2; for IKs current density: control 33.8 ± 3.2
T1 construct: expressed in transfected cells; host or cells: HEK293
Experimental: as §1, §2
Human Kir2.1 cDNA, Kir2.3 cDNA, Kv7.1 cDNA and KCNE1 cDNA, was cloned in Human Embryonic Kidney 293 cells, respectively. In some cases, Kv7.1 cDNA and KCNE1 cDNA were simultaneously cloned in Human Embryonic Kidney 293 cells.

Question: With `O=c1c(-c2ccc(O)cc2)coc2c([C@@H]3O[C@H](CO)[C@@H](O)[C@H](O)[C@H]3O)c(O)ccc12` [Puerarin, 8-c-glucoside of daidzein] as the compound, how does the APD50 ([1]; puerarin 0.01 mM, control 71.8 ± 11.8) read?
Answer: Its APD50 is 86.9 ± 10.7 ms.

Question: And the APA ([1]; puerarin 0.01 mM)?
Answer: The APA was 109.8 ± 8.5 mV.

Question: And the APD90 ([1]; puerarin 0.01 mM, control 164.6 ± 21.4)?
Answer: Its APD90 is 188.3 ± 11.5 ms.

Question: And the Vmax ([1]; puerarin 0.01 mM)?
Answer: The Vmax was 217.5 ± 10.7 V/s.

Question: What about the RMP ([1]; puerarin 0.01 mM) of the same compound?
Answer: The RMP was −80.5 ± 2.2 mV.

Question: What about the “effect on RMP, APA and Vmax” value ([1]; puerarin 100 μM) of the same compound?
Answer: The value was “not affected”.

Question: And the “effect on isoproterenol-reduced APD (APD50, APD90)” value ([1]; puerarin 100 μM with isoproterenol 10 nM)?
Answer: Its value is “significantly offseted the reduced effect of isoproterenol”.

Question: And the APD50 ([1]; puerarin 100 μM, from (71.8 ± 11.8) mS)?
Answer: Its APD50 is 100.5 ± 14.1 mS.

Question: And the APD90 ([1]; puerarin 100 μM, from (164.6 ± 21.4) mS)?
Answer: Its APD90 is 221.6 ± 25.7 mS.

Question: And the APD50 ([1]; puerarin 0.1 mM, control 71.8 ± 11.8)?
Answer: The APD50 was 100.5 ± 14.1 ms.

Question: What about the APA ([1]; puerarin 0.1 mM) of the same compound?
Answer: The APA was 114.2 ± 4.9 mV.

Question: And the APD90 ([1]; puerarin 0.1 mM, control 164.6 ± 21.4)?
Answer: Its APD90 is 221.6 ± 25.7 ms.

Question: What about the Vmax ([1]; puerarin 0.1 mM) of the same compound?
Answer: The Vmax was 242.1 ± 13.8 V/s.

Question: What about the RMP ([1]; puerarin 0.1 mM) of the same compound?
Answer: The RMP was −80.3 ± 1.6 mV.

Question: And the APD50 ([1]; puerarin 1 mM, control 71.8 ± 11.8)?
Answer: Its APD50 is 123.6 ± 25.4 ms.

Question: What about the APA ([1]; puerarin 1 mM) of the same compound?
Answer: The APA was 115.9 ± 6.2 mV.

Question: And the APD90 ([1]; puerarin 1 mM, control 164.6 ± 21.4)?
Answer: The APD90 was 278.7 ± 28.2 ms.

Question: And the Vmax ([1]; puerarin 1 mM)?
Answer: Its Vmax is 236.1 ± 15.9 V/s.

Question: And the RMP ([1]; puerarin 1 mM)?
Answer: The RMP was −79.7 ± 1.5 mV.

Question: And the APD50 ([1]; puerarin 10 mM, control 71.8 ± 11.8)?
Answer: The APD50 was 131.4 ± 19.6 ms.

Question: And the APA ([1]; puerarin 10 mM)?
Answer: Its APA is 112.6 ± 4.7 mV.

Question: What about the APD90 ([1]; puerarin 10 mM, control 164.6 ± 21.4) of the same compound?
Answer: Its APD90 is 330.1 ± 22.3 ms.

Question: What about the Vmax ([1]; puerarin 10 mM) of the same compound?
Answer: Its Vmax is 238.4 ± 11.5 V/s.

Question: What about the RMP ([1]; puerarin 10 mM) of the same compound?
Answer: The RMP was −75.3 ± 2.4 mV.

Question: What about the APD50 ([1]; puerarin 100 mM, control 71.8 ± 11.8) of the same compound?
Answer: Its APD50 is 146.9 ± 21.8 ms.

Question: And the APA ([1]; puerarin 100 mM)?
Answer: Its APA is 113.8 ± 5.1 mV.

Question: What about the APD90 ([1]; puerarin 100 mM, control 164.6 ± 21.4) of the same compound?
Answer: Its APD90 is 415.6 ± 28.4 ms.

Question: What about the Vmax ([1]; puerarin 100 mM) of the same compound?
Answer: Its Vmax is 240.6 ± 12.1 V/s.

Question: What about the RMP ([1]; puerarin 100 mM) of the same compound?
Answer: The RMP was −74.7 ± 2.6 mV.

Question: What about the APD50 ([1]; puerarin 200 mM, control 71.8 ± 11.8) of the same compound?
Answer: The APD50 was 162.3 ± 23.5 ms.

Question: What about the APD90 ([1]; puerarin 200 mM, control 164.6 ± 21.4) of the same compound?
Answer: The APD90 was 439.5 ± 29.6 ms.

Question: What about the RMP ([1]; puerarin 200 mM) of the same compound?
Answer: Its RMP is −73.5 ± 2.1 mV.

Question: And the APA ([1]; puerarin)?
Answer: The APA was 111.7 ± 5.6 mV.

Question: What about the Vmax ([1]; puerarin) of the same compound?
Answer: The Vmax was 237.8 ± 10.4 V/s.

Question: What about the IC50 ([2]; read-out: IC50, inhibition of IKs at the peak currents) of the same compound?
Answer: The IC50 was 55.6 µM.

Question: And the IC50 ([2]; read-out: IC50, inhibition of IKs at the tail currents)?
Answer: Its IC50 is 59.8 µM.

Question: What about the “Hill coefficient, inhibition of IKs” value ([2]; non-linear Hill fit) of the same compound?
Answer: The value was 0.989.

Question: What about the IKs-tail current density ([2]; puerarin 10 μM) of the same compound?
Answer: The IKs-tail current density was 17.8 ± 1.5 pA/pF.

Question: What about the IKs current density ([2]; puerarin 10 μM) of the same compound?
Answer: Its IKs current density is 25.6 ± 2.4 pA/pF.

Question: What about the IKs-tail current density ([2]; puerarin 100 μM) of the same compound?
Answer: Its IKs-tail current density is 9.7 ± 1.1 pA/pF.

Question: What about the IKs current density ([2]; puerarin 100 μM) of the same compound?
Answer: The IKs current density was 15.7 ± 1.9 pA/pF.

Question: What about the IKs-tail current density ([2]; puerarin 1 mM) of the same compound?
Answer: The IKs-tail current density was 6.4 ± 1.2 pA/pF.

Question: What about the IKs current density ([2]; puerarin 1 mM) of the same compound?
Answer: The IKs current density was 6.0 ± 1.3 pA/pF.

Question: What about the IKs-tail current density ([2]; puerarin 10 mM) of the same compound?
Answer: Its IKs-tail current density is 5.2 ± 1.3 pA/pF.

Question: What about the IKs current density ([2]; puerarin 10 mM) of the same compound?
Answer: Its IKs current density is 5.4 ± 1.7 pA/pF.
